Test: solvent given as SMILES

CC(C)(C)c1ccc(N2c3ccc(C(C)(C)C)cc3B3c4cc(C(C)(C)C)ccc4N(c4ccc(C(C)(C)C)cc4)c4cc(-n5c6ccc(C(C)(C)C)cc6c6cc(C(C)(C)C)ccc65)cc2c43)cc1
emission maximum (in Cc1ccccc1): 470 nm

CC(C)[Si](C#Cc1c2nsnc2c(C#C[Si](C(C)C)(C(C)C)C(C)C)c2nc3c(ccc4ccccc43)nc12)(C(C)C)C(C)C
emission maximum (in CCCCCC): 617 nm

COc1ccccc1C1=NC2c3cccc4cccc(c34)C2N1c1ccccc1 (stereo not given)
emission maximum (in Cc1ccccc1): 379 nm

O=C1/C(=C2\Sc3ccc(S(=O)(=O)Cl)cc3C2=O)Sc2ccc(S(=O)(=O)Cl)cc21
emission maximum (in C1COCCO1): 576 nm
emission maximum (in CS(C)=O): 624 nm

CN(C)c1[se]c(-c2ccc(Cl)cc2)nc1-c1ccccc1
emission maximum (in ClC(Cl)Cl): 455 nm

CCOC(=O)COc1ccc(/C=C/C2=[N+]3C(=Cc4c5ccccc5c(-c5[nH]c(C)cc5C)n4[B-]3(F)F)C(C)=C2)cc1
emission maximum (in ClCCl): 705 nm

CC1(C)C(/C=C/C2=C(Cl)C(=C/C=C3/N(CCCCCC(=O)O)c4ccccc4C3(C)C)/CCC2)=[N+](CCCCCC(=O)O)c2ccccc21
emission maximum (in CO): 808 nm

CCC(CC)n1c2ccccc2c2cc3c(cc21)c1ccccc1n3C(CC)CC
emission maximum (in ClC(Cl)Cl): 423 nm

c1ccc(-c2nc(-c3ccccc3)nc(-c3ccc(-n4c5ccc(-c6ccc7sc8ccccc8c7c6)cc5c5cc(-c6ccc7sc8ccccc8c7c6)ccc54)cc3)n2)cc1
emission maximum (in CCOC(C)=O): 473 nm
emission maximum (in CN(C)C=O): 531 nm
emission maximum (in Cc1ccccc1): 437 nm

c1ccc2c(-c3cc4c(ccc5sc(-c6cccc7ccccc67)cc54)s3)cccc2c1
emission maximum (in ClCCl): 423 nm

CCCn1c(=O)c(/C=C/c2nc3ccc(C)cc3n(CCC)c2=O)nc2ccc(C)cc21
emission maximum (in C1COCCO1): 484 nm
emission maximum (in CC#N): 502 nm
emission maximum (in ClCCl): 490 nm

C(=C\c1ccc(-c2ccccc2)cc1)/c1ccc(Oc2ccc3ccccc3c2-c2c(Oc3ccc(/C=C/c4ccc(-c5ccccc5)cc4)cc3)ccc3ccccc23)cc1
emission maximum (in ClCCl): 385 nm

c1ccc(Nc2nc(Nc3ccccc3)nc(Nc3ccc4ccc5cccc6ccc3c4c56)n2)cc1
emission maximum (in CC#N): 395 nm
emission maximum (in CCCCOCCCC): 394 nm
emission maximum (in CO): 395 nm

c1ccc2c(c1)Sc1ccccc1N2c1ccc2c(ccc3nc4ccc5cc(N6c7ccccc7Sc7ccccc76)ccc5c4nc32)c1
emission maximum (in C1CCCCC1): 543 nm
emission maximum (in Cc1ccccc1): 657 nm

Cc1ccc(-c2oc3cccc4c5c(-c6ccc(C)cc6)/c(=N/S(=O)(=O)C(F)(F)F)oc6cccc(c2c34)c65)cc1
emission maximum (in ClC(Cl)Cl): 577 nm

C#CCOc1ccc(C2=[N+]3C(=Nc4c(-c5ccccc5)cc(-c5ccc(O)cc5)n4[B-]3(F)F)C(c3ccccc3)=C2)cc1
emission maximum (in CO): 716 nm
emission maximum (in Cc1ccccc1): 711 nm
emission maximum (in ClC(Cl)Cl): 708 nm

NC(=O)C1=CN([C@H]2C[C@H](O)[C@@H](COP(=O)([O-])OP(=O)([O-])OC[C@H]3O[C@@H](n4cnc5c(N)ncnc54)C[C@@H]3O)O2)C=CC1
emission maximum (in O): 450 nm

CCn1c(-c2ccc(OC)cc2)c(-c2ccc3ccccc3c2)c(-c2ccc3ccccc3c2)c1-c1ccc(OC)cc1
emission maximum (in CCOC(C)=O): 404 nm

C(#Cc1ccccc1)c1ccccc1
emission maximum (in CO): 307 nm
emission maximum (in ClC(Cl)Cl): 320 nm
emission maximum (in ClCCl): 302 nm

CN(C)c1ccc(/C=C2\OC(=O)c3cc(N)ccc32)cc1
emission maximum (in CC#N): 561.8 nm
emission maximum (in CC(C)=O): 537.06 nm
emission maximum (in CC(C)CO): 542.89 nm
emission maximum (in CC(C)O): 550.06 nm
emission maximum (in CCCO): 559.91 nm
emission maximum (in CCO): 568.18 nm
emission maximum (in CCOC(C)=O): 520.83 nm
emission maximum (in CCOCC): 444.84 nm
emission maximum (in CO): 568.18 nm

COC(=O)c1ccc(/C=C2\N=C(c3ccc(OC)c(OC)c3)OC2=O)cc1
emission maximum (in C1COCCO1): 474 nm

c1ccc2c(-n3cnc4ccccc43)cccc2c1
emission maximum (in C1CCCCC1): 358 nm
emission maximum (in C1CCOC1): 359 nm
emission maximum (in CC#N): 362 nm
emission maximum (in CCO): 360 nm
emission maximum (in CCOC(C)=O): 361 nm
emission maximum (in CCOCC): 361 nm
emission maximum (in CO): 360 nm
emission maximum (in Cc1ccccc1): 359 nm
emission maximum (in ClC(Cl)Cl): 362 nm

c1cc2c3c(cccc3c1)C(N1CCOCCOCCOCCOCC1)=N2
emission maximum (in CC#N): 590 nm

CCCCC(CC)CN1C(=O)c2cccc3c(C#Cc4ccc(N(c5ccccc5)c5ccc(C#Cc6ccc7c8c(cccc68)C(=O)N(CC(CC)CCCC)C7=O)cc5)cc4)ccc(c23)C1=O (stereo not given)
emission maximum (in C1CCCCC1): 472 nm
emission maximum (in C1CCOC1): 631 nm
emission maximum (in CC#N): 549 nm
emission maximum (in Cc1ccccc1): 514 nm
emission maximum (in ClC(Cl)Cl): 587 nm

C#CCOc1ccc(/C=C/C2=[N+]3C(=C(c4ccc(N5CCCCC5)cc4)c4c(C)cc(C)n4[B-]3(F)F)C(C)=C2)cc1
emission maximum (in CO): 582 nm

CCCCN1C(=O)c2ccc3c4ccc5c6c(ccc(c7ccc(c2c37)C1=O)c64)C(=O)N(CCCC)C5=O
emission maximum (in ClC(Cl)Cl): 533 nm

c1ccc(N(c2ccccc2)c2ccc(-c3ccc(-c4nc(-c5ccccn5)n(-c5ccccc5)n4)cc3)cc2)cc1
emission maximum (in ClCCl): 435 nm

CCn1c2c(-c3ccc(-c4cccs4)s3)cc(C(C)(C)C)cc2c2cc(C(C)(C)C)cc(-c3ccc(-c4cccs4)s3)c21
emission maximum (in ClCCl): 440 nm

— the Deep4Chem optical property database
